Test results taken from patent publication US20020039780A1, “Salicyclic acid inducible genes and promoters” (priority 1998, published 2002).

Assays:
Assay type in all cases: cell-based
C18-1/EREBP1 = experiment: Northern analysis of mRNA accumulation in cultured tobacco cells; conditions: 0.1 and 1 mM, approximately 2.5 h
Procedure: (§1) FIG. 2. Time course of SA-induced gene expression. Northern analysis of representative differential display genes following treatment of cultured tobacco cells with SA for the indicated time (in hours, except lanes 2-4, which refer to 10, 20, and 30 min.). Twenty micrograms of total RNA was loaded per lane. Blots were hybridized with ddPCR fragments indicated at right or with the β-ATPase gene as a loading control probe. Autoradiogram exposure times were optimized for each gene. […] Labels on left indicate response class.
(§2) FIG. 4. Specificity of induction among SA analogs and other signalling compounds. Northern analysis of representative differential display genes following treatment of tobacco cells with 100 μM or 1 mM (left and right side of triangles, respectively) of the following chemicals for 2-2.5 hr: salicylic acid (SA, lanes 4 and 5), acetylSA (ASA, lanes 6 and 7), benzoic acid (BA, lanes 8 and 9), 4-hydroxybenzoic (4HBA, lanes 10 and 11), thiamine (thia, lanes 12 and 13), methyljasmonate (MJ, lanes 14 and 15), abscisic acid (ABA, lanes 16 and 17), or 2,4-dichlorophenoxyacetic acid (2,4-D, lanes 18 and 19). Control treatments are H2O (H, lane 1), 1% ethanol (E, solvent concentration in MJ treatments, lane 2), or 1% DMSO (D, solvent concentration in 2,4D treatments, lane 3). Blots were hybridized with ddPCR fragments indicated at right or with the β-ATPase geneas a loading control probe. Autoradiogram exposure times were optimized for each gene. […] Labels on left indicate response class.
(§3) FIG. 5. Dose response of C18-1 and G8-1 to a range of chemicals. Northern analysis of tobacco cell cultures with eight concentrations of SA, ASA, BA, 4HBA, Thia, MJ, ABA, 2,4-D, or H2O for 2-2.5 hr. Concentrations were 0.1, 1, 3, 10, 30, 100, 300 μM or […], as indicated.
(§4) FIG. 6. […] Graphic representation of mRNA accumulation of G8-1 ( ), C18se -1 (♦), and IEGT (o) in response to a 2-2.5 hr incubation of cultured tobacco cells with a range of SA concentrations. RNA gel blots were quantitated by phosphorimaging analysis and normalized relative to the β-ATPase gene loading control (not shown).
(§5) Differential display technology (Liang, P. and Pardee, A. B., Science 257: 967-971, 1992) was used to identify genes activated in the presence of SA, CHX and both. Therefore the absence or presence of SA, induction at 3 timepoints of SA-treatment, 2 different concentrations of SA and the effect of addition of CHX were measured. Seven treatments in total were performed. Treatment of tobacco BY-2 suspension cells and leaves and differential display PCR reactions were performed as described (Horvath and Chua (1996), Plant Mol. Biol. 31, 1061-1072).
The kinetics of induction were examined in detail through time course experiments for representative clones of each class (FIG. 2).
(§6) The specificity for induction by SA was tested by treating tobacco cells with a range of SA analogs and plant signalling compounds at 0.1 and 1 mM for approximately 2.5 h. […] Several genes, including those for proteinase inhibitors and lipoxygenase (Hildmann, T. et al., Plant Cell 4: 1157-1170, 1992; Melan, M. A. et al., Plant Physiol. 101: 441-450, 1993; Xu, D. et al., Plant Mol. Biol. 22: 573-588, 1993) are known to be under dual regulation by MJ and ABA.
A dose-response curve was made for SA. Therefore tobacco cells were treated with SA in a range of concentrations from 0.1 μM to 2 mM.

C6-2 = experiment: as above; conditions: 0.1 and 1 mM, approximately 2.5 h
Procedure: (§7) FIG. 2. Time course of SA-induced gene expression. Northern analysis of representative differential display genes following treatment of cultured tobacco cells with SA for the indicated time (in hours, except lanes 2-4, which refer to 10, 20, and 30 min.). Twenty micrograms of total RNA was loaded per lane. Blots were hybridized with ddPCR fragments indicated at right or with the β-ATPase gene as a loading control probe. Autoradiogram exposure times were optimized for each gene. The signal for C18-1 was enhanced by using the full length cDNA as probe. Labels on left indicate response class.
(§8) FIG. 4. Specificity of induction among SA analogs and other signalling compounds. Northern analysis of representative differential display genes following treatment of tobacco cells with 100 μM or 1 mM (left and right side of triangles, respectively) of the following chemicals for 2-2.5 hr: salicylic acid (SA, lanes 4 and 5), acetylSA (ASA, lanes 6 and 7), benzoic acid (BA, lanes 8 and 9), 4-hydroxybenzoic (4HBA, lanes 10 and 11), thiamine (thia, lanes 12 and 13), methyljasmonate (MJ, lanes 14 and 15), abscisic acid (ABA, lanes 16 and 17), or 2,4-dichlorophenoxyacetic acid (2,4-D, lanes 18 and 19). Control treatments are H2O (H, lane 1), 1% ethanol (E, solvent concentration in MJ treatments, lane 2), or 1% DMSO (D, solvent concentration in 2,4D treatments, lane 3). Blots were hybridized with ddPCR fragments indicated at right or with the β-ATPase geneas a loading control probe. Autoradiogram exposure times were optimized for each gene. The signal for C18-1 was enhanced by using the full length cDNA as probe. Labels on left indicate response class.
as §5
(§9) The specificity for induction by SA was tested by treating tobacco cells with a range of SA analogs and plant signalling compounds at 0.1 and 1 mM for approximately 2.5 h. […] Among the SA-analogs, acetyl-SA (ASA, aspirin), benzoic acid (BA) and 4-hydroxybenzoic acid (4HBA), responses generally reflected the ability of the analog to substitute for SA in other cellular responses (Yalpani, N. et al., Plant Cell 3: 809-818, 1991, Yang, Y. and Klessig, D. F., Proc. Natl. Acad. Sci. 93, 14972-14977, 1996). […] Several genes, including those for proteinase inhibitors and lipoxygenase (Hildmann, T. et al., Plant Cell 4: 1157-1170, 1992; Melan, M. A. et al., Plant Physiol. 101: 441-450, 1993; Xu, D. et al., Plant Mol. Biol. 22: 573-588, 1993) are known to be under dual regulation by MJ and ABA. A similar mode of regulation may be in effect with C14-1b. the auxin 2,4-D induced several genes including C18-1/EREBP1 and C6-2.

G8-1 = experiment: as above; conditions: for G8-1 induction at 0.1 mM versus 1 mM: 0.1 and 1 mM, approximately 2.5 h
Procedure: (§10) FIG. 1. […] Northern analysis of genes identified by differential display. Gel-purified DNA fragments produced by ddPCR were either used directly for random-primed labeling and probing of Northern filters (e.g. C7-1, C6-1, and G9-2) or first subcloned and released by restriction digest. Each lane contains 1 μg of poly(A) mRNA from cultured tobacco cells treated with (1) H2O, 4 hr; (2) 200 μM SA, 4 hr; (3) 71 μM CHX, 5 hr; (4) 71 μM CHX, 5 hr plus 200 μM SA after 1 hr (4 hr total); (5) 20 μM SA, 2 hr; (7) 200 μM SA, 8 hr.
as §1, §2, §3, §4, §5
The specificity for induction by SA was tested by treating tobacco cells with a range of SA analogs and plant signalling compounds at 0.1 and 1 mM for approximately 2.5 h.

[1] = test system: class IV genes (G3-2 and C14-1b); experiment: Northern analysis of poly(A) mRNA from treated tobacco cells
Procedure: (§11) FIG. 1. Four classes of SA-induced early genes. Northern analysis of genes identified by differential display. Gel-purified DNA fragments produced by ddPCR were either used directly for random-primed labeling and probing of Northern filters (e.g. C7-1, C6-1, and G9-2) or first subcloned and released by restriction digest. Each lane contains 1 μg of poly(A) mRNA from cultured tobacco cells treated with (1) H2O, 4 hr; (2) 200 μM SA, 4 hr; (3) 71 μM CHX, 5 hr; (4) 71 μM CHX, 5 hr plus 200 μM SA after 1 hr (4 hr total); (5) 20 μM SA, 2 hr; (7) 200 μM SA, 8 hr. One blot was sequentially hybridized with the G1-1 fragment and the β-ATPase gene as a loading control probe. response classes (I-IV) are indicated on the left of the autoradiograms.
as §5
(§12) Fiftytwo were recovered for testing on poly(A)+Northern blots loaded with mRNA derived from cells from each of the treatments.

class II genes = experiment: as above; conditions: SA at 2, 4, 8 h; 71 μM CHX 5 hrs; CHX + 200 μM SA
Procedure: as §11, §5, §12

Class I genes = experiment: as above; conditions: SA at 2, 4 or 8 h; 71 μM CHX 5 hrs; CHX + 200 μM SA
Procedure: as §11, §5, §12

[2] = test system: early SA-induced genes identified by differential display; experiment: Northern analysis of differential display genes in cultured tobacco cells; conditions: 0.1 and 1 mM, approximately 2.5 h
Procedure: as §10, §2, §5, §6

G3-2 = experiment: Northern analysis of mRNA accumulation in cultured tobacco cells; conditions: 0.1 and 1 mM, approximately 2.5 h
Procedure: as §11, §7, §8, §5, §9

C14-1b = experiment: as above; conditions: 0.1 and 1 mM, approximately 2.5 h
Procedure: as §7, §8, §5, §9

[3] = 71 μM CHX 5 hrs + 200 μM SA after 1 hr
[4] = SA at 2, 4, 8 h, 71 μM CHX 5 hrs

`O=C(O)COc1ccc(Cl)cc1Cl` [2,4-D, 2,4-dichlorophenoxyacetic acid] was tested, and the “induction of C18-1/EREBP1” value (C18-1/EREBP1) was “induced” and the “induction of C6-2” value (C6-2) was “induced”.

`C[C@@H]1C[C@@H]([C@H](O)CC2CC(=O)NC(=O)C2)C(=O)[C@@H](C)C1` [CHX, cycloheximide] was tested, and the “effect of presence of CHX on induction of G8-1 by SA” value (G8-1; [3]) was “did not significantly alter”, the “mRNA induction of G8-1 (class III)” value (G8-1; [4]) was “did not induce” and the “effect of CHX on induction of class IV genes by SA” value [1, 3] was “blocked the induction”. For the same compound, the “mRNA induction of class IV genes” value [1, 4] was “fail to induce”, the “mRNA induction of class II genes” value (class II genes) was “also induced expression” and the “mRNA induction of Class I genes” value (Class I genes) was “some induction”.

With `O=C(O)c1ccccc1` [BA, benzoic acid] the “induction of the genes tested” value [2] was “also induced the expression”, the “G3-2 induction at 0.1 mM versus 1 mM” value (G3-2) was “equal or greater induction at 0.1 mM versus 1 mM” and the “C18-1/EREBP1 induction at 0.1 mM versus 1 mM” value (C18-1/EREBP1) was “greater induction at 1mM”. The “G8-1 induction at 0.1 mM versus 1 mM” value (G8-1) was “equal or greater induction at 0.1 mM versus 1 mM” and the “C6-2 induction at 0.1 mM versus 1 mM” value (C6-2) was “greater induction at 1mM”.

In the case of `O=C(O)c1ccc(O)cc1` [4HBA, 4-hydroxybenzoic acid], the “induction of the genes tested” value [2] is reported as “failed to induce all genes but C6-2”.

With `CC1=CC(=O)CC(C)(C)[C@@]1(O)/C=C/C(C)=C\C(=O)O` [ABA, abscisic acid] the “induction of C14-1b” value (C14-1b) was “could be induced”.

For `CC(=O)Oc1ccccc1C(=O)O` [ASA, acetyl-SA], the “induction of the genes tested” value [2] was “induced all genes to similar levels as SA”, the “G3-2 induction at 0.1 mM versus 1 mM” value (G3-2) was “equal or greater induction at 0.1 mM versus 1 mM” and the “C18-1/EREBP1 induction at 0.1 mM versus 1 mM” value (C18-1/EREBP1) was “greater induction at 1mM”. The “G8-1 induction at 0.1 mM versus 1 mM” value (G8-1) was “equal or greater induction at 0.1 mM versus 1 mM” and the “C6-2 induction at 0.1 mM versus 1 mM” value (C6-2) was “greater induction at 1mM”.

With `CC/C=C\CC1C(=O)CCC1CC(=O)OC` (centres unmarked) [MJ, Methyljasmonate] the “induction of G3-2” value (G3-2) was “able to induce expression”, the “effectiveness as inducer of C18-1/EREBP1 among compounds tested” value (C18-1/EREBP1) was “most effective inducer” and the “induction of C18-1/EREBP1” value (C18-1/EREBP1) was “able to induce expression”. For the same compound, the “effectiveness as inducer of C14-1b among compounds tested” value (C14-1b) was “most effective inducer” and the “induction of C14-1b” value (C14-1b) was “able to induce expression”.

With `Cc1ncc(C[n+]2csc(CCO)c2C)c(N)n1` [thiamine] the “induction of the genes tested” value [2] was “did not produce a response from any of the genes tested”.
